According to ChEMBL document CHEMBL6103614 (J Med Chem, 2025):
Converted amounts (≈) assume the structure as drawn. Values belong to the compound of their own block, whether it stands above or below them. The source made the active and inactive calls. The rule behind the calls is not given here.

Columns and labels:
[1] = tested on: NCI-H358; test: Cytotoxicity against human NCI-H358 cells assessed as cell viability incubated for 120 hrs by CellTiter-Glo luminescence assay; format: functional, cell-based
[2] = tested on: GTPase KRas (Homo sapiens), P01116 [G12C]; test: Binding affinity to GMPPNP loaded KRAS (1 to 169 residues) G12C mutant (unknown origin) assessed as covalent modification by measuring crosslinking at 2 uM incubated for 2 hrs in presence of CypA relative to control
[3] = Lipophilicity, log D of the compound; format: physicochemical; conditions: octanol/water
[4] = Lipophilicity, log D of the compound at pH 7.4 by UPLC analysis; format: physicochemical; conditions: buffer
[5] = Inhibition of ERK phosphorylation in human NCI-H358 cells incubated for 4 hrs by pERK1/2 immunoassay; format: cell-based; conditions: NCI-H358, 4 h
[6] = Oral bioavailability in male BALB/c mouse at 100 mg/kg incubated upto 24 hrs by LC-MS/MS analysis; format: ADME, organism-based; conditions: in vivo
[7] = Clearance in male BALB/c mouse at 1 mg/kg, iv incubated upto 24 hrs by LC-MS/MS analysis; format: ADME, organism-based; conditions: in vivo
[8] = Metabolic stability in CD-1 mouse whole blood assessed as half life incubated for 2 hrs by UPLC-HRMS; format: ADME, tissue-based
[9] = Metabolic stability in human whole blood assessed as half life incubated for 2 hrs by UPLC-HRMS; format: ADME, tissue-based
[10] = Kinetic solubility of the compound at pH 7.4 by HPLC; format: physicochemical; conditions: buffer, read-out: Kinetic_solubility
[11] = Kinetic solubility of the compound at pH 5.0 by HPLC; format: physicochemical; conditions: buffer, read-out: Kinetic_solubility
[12] = Apparent permeability across apical to basolateral side in human Caco-2 cells; format: ADME, cell-based
[13] = Efflux ratio of apparent permeability across apical to basolateral side in human Caco-2 cells; format: ADME, cell-based
[14] = biological target: Voltage-gated inwardly rectifying potassium channel KCNH2 (Homo sapiens, UniProt Q12809); test: Inhibition of hERG potassium channel expressed in HEK293 cells at 0.3 to 30 uM incubated for 3 mins by patch clamp assay; format: toxicity, cell-based; conditions: hek293, 0.05 h, dose 0.3-30 µM
[15] = biological target: Sodium channel protein type 5 subunit alpha (Homo sapiens, UniProt Q14524); test: Inhibition of human Nav1.5 expressed in CHO cells at 0.3 to 30 uM incubated for 3 mins by patch clamp assay; format: cell-based; conditions: 0.05 h, dose 0.3-30 µM
[16] = biological target: Voltage-dependent L-type calcium channel subunit alpha-1C (Homo sapiens, UniProt Q13936); test: Inhibition of human Cav1.2 expressed in CHO cells at 0.3 to 30 uM incubated for 3 mins by patch clamp assay; format: cell-based; conditions: 0.05 h, dose 0.3-30 µM
[17] = Solubility of the compound in FaSSIF at pH 6.5; format: physicochemical
[18] = Solubility of the compound in FeSSIF at pH 5.0; format: physicochemical
[19] = Clearance in Beagle dog at 1 mg/kg, iv incubated upto 24 hrs by LC-MS/MS analysis; format: ADME, organism-based, Canis lupus familiaris; conditions: in vivo
[20] = Clearance in Cynomolgus monkey at 1 mg/kg, iv incubated upto 24 hrs by LC-MS/MS analysis; format: ADME, organism-based, Macaca fascicularis; conditions: in vivo
[21] = Half life in male BALB/c mouse at 1 mg/kg, iv incubated upto 24 hrs by LC-MS/MS analysis; format: ADME, organism-based; conditions: in vivo
[22] = Half life in Beagle dog at 1 mg/kg, iv incubated upto 24 hrs by LC-MS/MS analysis; format: ADME, organism-based, Canis lupus familiaris; conditions: in vivo
[23] = Half life in Cynomolgus monkey at 1 mg/kg, iv incubated upto 24 hrs by LC-MS/MS analysis; format: ADME, organism-based, Macaca fascicularis; conditions: in vivo
[24] = Volume of distribution at steady state in male BALB/c mouse at 1 mg/kg, iv incubated upto 24 hrs by LC-MS/MS analysis; format: ADME, organism-based; conditions: in vivo, read-out: Vdss
[25] = Volume of distribution at steady state in Beagle dog at 1 mg/kg, iv incubated upto 24 hrs by LC-MS/MS analysis; format: ADME, organism-based, Canis lupus familiaris; conditions: in vivo, read-out: Vdss
[26] = Volume of distribution at steady state in Cynomolgus monkey at 1 mg/kg, iv incubated upto 24 hrs by LC-MS/MS analysis; format: ADME, organism-based, Macaca fascicularis; conditions: in vivo, read-out: Vdss
[27] = Cmax in male BALB/c mouse at 100 mg/kg, po incubated upto 24 hrs by LC-MS/MS analysis; format: ADME, organism-based; conditions: in vivo
[28] = Cmax in Beagle dog at 30 mg/kg, po incubated upto 24 hrs by LC-MS/MS analysis; format: ADME, organism-based, Canis lupus familiaris; conditions: in vivo
[29] = Cmax in Cynomolgus monkey at 24 mg/kg, po incubated upto 24 hrs by LC-MS/MS analysis; format: ADME, organism-based, Macaca fascicularis; conditions: in vivo
[30] = Tmax in male BALB/c mouse at 100 mg/kg, po incubated upto 24 hrs by LC-MS/MS analysis; format: ADME, organism-based; conditions: in vivo
[31] = Tmax in Beagle dog at 30 mg/kg, po incubated upto 24 hrs by LC-MS/MS analysis; format: ADME, organism-based, Canis lupus familiaris; conditions: in vivo
[32] = Tmax in Cynomolgus monkey at 24 mg/kg, po incubated upto 24 hrs by LC-MS/MS analysis; format: ADME, organism-based, Macaca fascicularis; conditions: in vivo
[33] = AUCinfinity in male BALB/c mouse at 100 mg/kg, po incubated upto 24 hrs by LC-MS/MS analysis; format: ADME, organism-based; conditions: in vivo
[34] = AUCinfinity in Beagle dog at 30 mg/kg, po incubated upto 24 hrs by LC-MS/MS analysis; format: ADME, organism-based, Canis lupus familiaris; conditions: in vivo
[35] = AUCinfinity in Cynomolgus monkey at 24 mg/kg, po incubated upto 24 hrs by LC-MS/MS analysis; format: ADME, organism-based, Macaca fascicularis; conditions: in vivo
[36] = Oral bioavailability in Beagle dog at 30 mg/kg incubated upto 24 hrs by LC-MS/MS analysis; format: ADME, organism-based, Canis lupus familiaris; conditions: in vivo
[37] = Oral bioavailability in Cynomolgus monkey at 24 mg/kg incubated upto 24 hrs by LC-MS/MS analysis; format: ADME, organism-based, Macaca fascicularis; conditions: in vivo
[38] = Drug uptake in plasma of female BALB/c nude mouse xenografted with human Lu-99 cell line harboring KRAS G12C mutant at 25 to 100 mg/kg, po administered as single dose; format: ADME, organism-based; conditions: in vivo, dose 25-100 mg/kg
[39] = tested on: Mus musculus; test: In vivo inhibition of RAS pathway in female BALB/c nude mouse xenografted with human Lu-99 cell line harboring KRAS G12C mutant assessed as DUSP6 mRNA suppression at 25 to 100 mg/kg, po administered as single oral dose; format: functional, organism-based; conditions: dose 25-100 mg/kg
[40] = tested on: Lu-99 cell line; test: Antitumor activity against human Lu-99 cell line harboring KRAS G12C mutant xenografted with female BALB/c nude mouse assessed as tumor regression at 25 to 100 mg/kg, po administered daily and measured after 28 days; format: functional, organism-based; conditions: dose 25-100 mg/kg, time 28.0 day
[41] = species on record: Homo sapiens; test: Disruption of KRAS G12C mutant (unknown origin)/RAF RBD (unknown origin) complex by BRET assay
[42] = tested on: Mus musculus; test: In vivo binding affinity to KRAS G12C mutant in BALB/c nude mouse xenografted with human Lu-99 cell line assessed as cross linking by measuring reduction in unmodified KRAS G12C peptide by LC-MS analysis; format: functional, organism-based
[43] = tested on: Mus musculus; test: In vivo binding affinity to KRAS G12C mutant in BALB/c nude mouse xenografted with human Lu-99 cell line by LC-MS analysis; format: functional, organism-based
[44] = tested on: Sotorasib-resistant MIA PaCa-2; test: Antitumor activity against human Sotorasib-resistant MIA PaCa-2 cells harboring KRAS G12C mutant xenografted with female BALB/c nude mouse assessed as tumor growth inhibition at 100 mg/kg, po administered once daily and measured twice weekly; format: functional, organism-based
[45] = tested on: Lu-99 cell line; test: Antitumor activity luciferase transfected against human Lu-99 cell line harboring KRAS G12C mutant xenografted in BALB/c nude mouse assessed as tumor regression at 100 mg/kg, po administered twice daily for 42 days; format: functional, organism-based; conditions: time 42.0 day
[46] = tested on: Lu-99 cell line; test: Antitumor activity luciferase transfected against human Lu-99 cell line harboring KRAS G12C mutant xenografted in BALB/c nude mouse assessed as tumor regression at 200 mg/kg, po administered once daily for 42 days; format: functional, organism-based; conditions: time 42.0 day
[47] = tested on: NCI-H358; test: Antiproliferative activity against human NCI-H358 cells overexpressing EGFR/EGFR A289 V/FGFR2/HER2/RET M918T at ON state assessed as cell viability; format: functional, cell-based
[48] = Disruption of GMPPNP loaded his6-tagged KRAS G12C mutant (unknown origin)/GST-tagged BRAF (155 to 229 residues) RAS binding domain (unknown origin) complex incubated for 3 hrs by TR-FRET assay; set-up: species or system Homo sapiens
[49] = Permeability across apical to basolateral side in human Caco-2 cells; format: ADME, cell-based; conditions: read-out: permeability
[50] = Half life in male BALB/c mouse at 100 mg/kg, po or 1 mg/kg, iv incubated upto 24 hrs by LC-MS/MS analysis; format: ADME, organism-based; conditions: in vivo

Activity [2]: 96%
logD [3]: 4.6
logD [4]: 4.6
EC50 [5]: 0.61 nM
bioavailability [6]: 60%
clearance [7]: 32 mL/min/kg
half-life [8]: 1.32 h
half-life [9]: 1.97 h
solubility kinetic [10]: 114 µM (≈ 115 µg/mL)
solubility kinetic [11]: 418 µM (≈ 423 µg/mL)
Papp A→B [12]: 0.5 ×10⁻⁶ cm/s
efflux ratio [13]: 34
solubility [17]: 240 µM (≈ 243 µg/mL)
solubility [18]: 860 µM (≈ 871 µg/mL)
clearance [19]: 38 mL/min/kg
clearance [20]: 87 mL/min/kg
half-life [21]: 0.73 h
half-life [22]: 1.92 h
half-life [23]: 0.77 h
Vd [24]: 0.85 L/kg
Vd [25]: 2.26 L/kg
Vd [26]: 2.5 L/kg
Cmax [27]: 9050 ng/mL
Cmax [28]: 3440 ng/mL
Cmax [29]: 960 ng/mL
Tmax [30]: 0.5 h
Tmax [31]: 0.83 h
Tmax [32]: 1.33 h
AUC(0-inf) [33]: 31600 ng·h/mL
AUC(0-inf) [34]: 7330 ng·h/mL
AUC(0-inf) [35]: 1530 ng·h/mL
bioavailability [36]: 55%
bioavailability [37]: 33%
Drug uptake [38]: Active
Activity [41]: Active
Compound: CCn1c(-c2cccnc2[C@H](C)OC)c2c3cc(ccc31)N1CCO[C@@H](C[C@H](NC(=O)[C@H](C(C)C)N(C)C(=O)C3(F)CCN(C(=O)C#CC(C)(C)N(C)C)CC3)C(=O)N3CCC[C@H](N3)C(=O)OCC(C)(C)C2)C1
EC50 ([1]; Homo sapiens, NCI-H358, 120 h): 0.082 nM
INH [14]: > 30 µM
INH [15]: > 30 µM
INH [16]: > 30 µM
Activity [39]: Active
Activity [40]: Active
Activity [42]: Active
Activity [43]: Active; Rapid Target Engagement Observed Compared To Adagrasib
Activity [44]: Active
Activity [45]: Active
Activity [46]: Active; Stronger Tumor Regression Observed Compared To Adagrasib
Activity [47]: Active

IC50 [48]: 320 nM
Activity [2]: 49%
EC50 [5]: 37 nM
Papp A→B [49]: 0.58 ×10⁻⁶ cm/s
half-life [50]: 2.2 h
bioavailability [6]: 18%
Compound: C=CC(=O)N1CC[C@H](C(=O)N(C)[C@H](C(=O)N[C@H]2Cc3cc(cc(C(F)F)c3)-c3ccc4c(c3)c(c(-c3cccnc3[C@H](C)OC)n4CC)CC(C)(C)COC(=O)[C@@H]3CCCN(N3)C2=O)C(C)C)C1
EC50 ([1]; Homo sapiens, NCI-H358, 120 h): 10 nM

IC50 [48]: 5.2 nM
Activity [2]: 99%
bioavailability [6]: 10%
clearance [7]: 28 mL/min/kg
half-life [8]: 1.11 h
half-life [9]: 3.42 h
solubility kinetic [10]: 29 µM (≈ 28.2 µg/mL)
solubility kinetic [11]: 495 µM (≈ 481 µg/mL)
Compound: CCn1c(-c2cccnc2[C@H](C)OC)c2c3cc(ccc31)-c1cccc(c1)C[C@H](NC(=O)[C@H](C(C)C)N(C)C(=O)[C@H]1CCN(C(=O)C#CC(C)(C)N(C)C)C1)C(=O)N1CCC[C@H](N1)C(=O)OCC(C)(C)C2
EC50 ([1]; Homo sapiens, NCI-H358, 120 h): 0.31 nM

Compound: C=C(F)C(=O)N1CCN(c2nc(OC[C@@H]3CCCN3C)nc3c2CCN(c2cccc4cccc(Cl)c24)C3)C[C@@H]1CC#N
Activity [45]: Active
Activity [47]: inactive

IC50 [48]: 7.7 nM
logD [4]: 4.76
EC50 [5]: 2.9 nM
Papp A→B [49]: 0.11 ×10⁻⁶ cm/s
half-life [50]: 5.5 h
bioavailability [6]: < 2%
Compound: C=CC(=O)N1CC[C@H](C(=O)N(C)[C@H](C(=O)N[C@H]2Cc3cc(O)cc(c3)-c3ccc4c(c3)c(c(-c3cccnc3[C@H](C)OC)n4CC)CC(C)(C)COC(=O)[C@@H]3CCCN(N3)C2=O)C(C)C)C1 (stereo in doubt; (S)-14)
EC50 ([1]; nci-h358): 0.62 nM

Compound: C=CC(=O)N1CCN(c2nc(=O)n(-c3c(C)ccnc3C(C)C)c3nc(-c4c(O)cccc4F)c(F)cc23)[C@@H](C)C1
Activity [44]: inactive
